Tests used:
Assay type in all cases: cell-based
[1] = system: Yeasts: Candida albicans and Rhodotorula rubra; test: Microbiological load test, preservation of a dishwashing liquid: yeasts; details: Y = yeasts, 1 week after pathogen addition, biocide added [wt %]: A DBDCB 0.05, B salicylic acid 0.02, C DBDCB 0.02 and salicylic acid 0.016
Source text: (§1) The preserving effect of an inventive composition comprising DBDCB and Salix alba extract in a dishwashing liquid was investigated using a microbiological load test. The microbiological load test examines the susceptibility of water-based products to microbial attack and the effect of preservatives. To this end, the preservatives are incorporated in defined concentrations into the water-based systems. […] With knowledge of the microorganism populations prevalent in detergents of the type described here, the experiment employed a mixture of the following microorganism species for testing: Yeasts: Candida albicans and Rhodotorula rubra. […] The activity is deemed poor when, compared to the unpreserved sample, no reduction or only a minor reduction of the microbe level is observed (residual level of at least 10^5 bacteria/10^4 mold cells/yeast cells per g) (score of 0=poor). The following compositions were used in the experiments depicted in table 10: • A: DBDCB • B: […]

[2] = system: Bacteria: Escherichia coil, Pseudomonas aeruginosa, Staphylococcus aureus, Pseudomonas putida, Enterobacter gergoviae; test: Microbiological load test, preservation of a dishwashing liquid: bacteria; details: B = bacteria, 1 week after pathogen addition, biocide added [wt %]: A DBDCB 0.05, B salicylic acid 0.02, C DBDCB 0.02 and salicylic acid 0.016
Source text: as §1, with “Bacteria: Escherichia coil, Pseudomonas aeruginosa, Staphylococcus aureus, Pseudomonas putida, Enterobacter gergoviae” for “Yeasts: Candida albicans and Rhodotorula rubra.”

[3] = system: Molds: Acremonium strictum, Aspergillus niger and Geotrichum candidum; test: Microbiological load test, preservation of a dishwashing liquid: molds; details: M = molds, 1 week after pathogen addition, biocide added [wt %]: A DBDCB 0.05, B salicylic acid 0.02, C DBDCB 0.02 and salicylic acid 0.016
Source text: as §1, with “Molds: Acremonium strictum, Aspergillus niger” for “Yeasts: Candida albicans”, “Geotrichum candidum.” for “Rhodotorula rubra.”

Geotrichum candidum = test: Minimum inhibitory concentration and synergistic index (Kull); details: Table 3
Source text: (§2) [formula] • where: • Qa=the amount of component A in the active substance mixture which achieves the desired effect, i.e. no microbial growth, • QA=the amount of component A which, when used on its own, suppresses the growth of the microorganisms, • Qb=the amount of component B in the active substance mixture which achieves the desired effect, i.e. no microbial growth, • and • QB=the amount of component B which, when used on its own, suppresses the growth of the microorganisms.
(§3) A synergistic index obtained according to the above formula of SI<1 indicates a synergistic effect for the active substance mixture.
(§4) Using various test pathogens, the minimum inhibitory concentration was determined and, on the basis thereof with the aid of the formula by F. C. Kull et al., the synergistic effects of the listed compositions according to the invention were calculated.

Pseudomonas aeruginosa = test: as above; details: for QA: amount of DBDCB used on its own that suppresses growth
Source text: as §2, §3, §4

Aspergillus brasiliensis = test: as above; details: Table 9
Source text: as §2, §3, §4

Alternaria alternata = test: as above; details: for QA: amount of DBDCB used on its own that suppresses growth
Source text: as §2, §3, §4

Bacillus subtilis = test: as above; details: Table 8
Source text: as §2, §3, §4

Staphylococcus aureus = test: as above; details: Table 1
Source text: as §2, §3, §4

[4] = amount of DBDCB used on its own that suppresses growth
[5] = amount of benzoic acid used on its own that suppresses growth
[6] = amount of citric acid used on its own that suppresses growth

N#CCCC(Br)(C#N)CBr (stereo not drawn) [DBDCB, 1,2-dibromo-2,4-dicyanobutane]
Activity of the biocides in a dishwashing liquid, yeasts, Week 1 ([1]; week 1): 3 (3 = very good activity)
Activity of the biocides in a dishwashing liquid, yeasts, Week 2 ([1]; week 2): 3 (3 = very good activity)
Activity of the biocides in a dishwashing liquid, yeasts, Week 3 ([1]; week 3): 0 (0 = poor activity)
Activity of the biocides in a dishwashing liquid, yeasts, Week 4 ([1]; week 4): 0 (0 = poor activity)
Activity of the biocides in a dishwashing liquid, yeasts, Week 5 ([1]; week 5): 0 (0 = poor activity)
Activity of the biocides in a dishwashing liquid, yeasts, Week 6 ([1]; week 6): 0 (0 = poor activity)
Activity of the biocides in a dishwashing liquid, bacteria, Week 1 ([2]; week 1): 1 (1 = fair activity)
Activity of the biocides in a dishwashing liquid, bacteria, Week 2 ([2]; week 2): 0 (0 = poor activity)
Activity of the biocides in a dishwashing liquid, bacteria, Week 3 ([2]; week 3): 0 (0 = poor activity)
Activity of the biocides in a dishwashing liquid, bacteria, Week 4 ([2]; week 4): 0 (0 = poor activity)
Activity of the biocides in a dishwashing liquid, bacteria, Week 5 ([2]; week 5): 0 (0 = poor activity)
Activity of the biocides in a dishwashing liquid, bacteria, Week 6 ([2]; week 6): 0 (0 = poor activity)
Activity of the biocides in a dishwashing liquid, molds, Week 1 ([3]; week 1): 3 (3 = very good activity)
Activity of the biocides in a dishwashing liquid, molds, Week 2 ([3]; week 2): 3 (3 = very good activity)
Activity of the biocides in a dishwashing liquid, molds, Week 3 ([3]; week 3): 0 (0 = poor activity)
Activity of the biocides in a dishwashing liquid, molds, Week 4 ([3]; week 4): 0 (0 = poor activity)
Activity of the biocides in a dishwashing liquid, molds, Week 5 ([3]; week 5): 0 (0 = poor activity)
Activity of the biocides in a dishwashing liquid, molds, Week 6 ([3]; week 6): 0 (0 = poor activity)
QA (Geotrichum candidum; [4]): 100 ppm
QA (Pseudomonas aeruginosa; Table 4): 500 ppm
QA (Pseudomonas aeruginosa; Table 6): 250 ppm
QA (Aspergillus brasiliensis; [4]): 250 ppm
QA (Alternaria alternata; Table 2): 25 ppm
QA (Alternaria alternata; Table 5): 25 ppm
QA (Alternaria alternata; Table 7): 25 ppm
QA (Bacillus subtilis; [4]): 25 ppm
QA (Staphylococcus aureus; [4]): 50 ppm

O=C(O)c1ccccc1 [benzoic acid]
QB (Aspergillus brasiliensis; [5]): 1000 ppm
QB (Bacillus subtilis; [5]): 3000 ppm

O=C(O)CC(O)(CC(=O)O)C(=O)O [citric acid]
QB (Geotrichum candidum; [6]): 3001 ppm
QB (Alternaria alternata; amount of citric acid used on its own that suppresses growth, Table 2): 3001 ppm
QB (Staphylococcus aureus; [6]): 3001 ppm

CC(O)C(=O)O (stereo not drawn) [lactic acid]
QB (Pseudomonas aeruginosa; amount of lactic acid used on its own that suppresses growth, Table 4): 3001 ppm
QB (Alternaria alternata; amount of lactic acid used on its own that suppresses growth, Table 5): 3001 ppm

O=C(O)c1ccccc1O [salicylic acid]
QB (Pseudomonas aeruginosa; amount of salicylic acid used on its own that suppresses growth, Table 6): 3001 ppm
QB (Alternaria alternata; amount of salicylic acid used on its own that suppresses growth, Table 7): 500 ppm
